Results reported in patent US9856279B2 (AGIOS PHARMACEUTICALS, INC, priority 2011, dated 2018).

Legend:
U87MG cells = experiment: Cellular assay for IDH1m inhibitors: inhibition of 2-HG production (LC-MS, 48 hours) in U87MG cells; format: cell-based; details: Homo sapiens, U-87 MG, inhibition of 2-HG production, U87R132H cells; read-out: U87R132H IC50
Procedure: (§1) Cells (e.g., HT1080 or U87MG) and are grown in T125 flasks in DMEM containing 10% FBS, 1× penicillin/streptomycin and 500 ug/mL G418. They are harvested by trypsin and seeded into 96 well white bottom plates at a density of 5000 cell/well in 100 ul/well in DMEM with 10% FBS. No cells are plates in columns 1 and 12. Cells are incubated overnight at 37° C. in 5% CO2. The next day compounds are made up at 2× concentration and 100 ul are added to each cell well. The final concentration of DMSO is 0.2% and the DMSO control wells are plated in row G. The plates are then placed in the incubator for 48 hours. At 48 hours, 100 μl of media is removed from each well and analyzed by LC-MS for 2-HG concentrations. The cell plate is placed back in the incubator for another 24 hours. At 72 hours post compound addition, 10 mL/plate of Promega Cell Titer Glo reagent is thawed and mixed. The cell plate is removed from the incubator and allowed to equilibrate to room temperature. Then 100 ul of reagent is added to each well of media. The cell plate is then placed on an orbital shaker for 10 minutes and then allowed to sit at room temperature for 20 minutes. The plate is then read for luminescence with an integration time of 500 ms.
(§2) The IC50 for inhibition of 2-HG production (concentration of test compound to reduce 2HG production by 50% compared to control) in these two cell lines for various compounds of formula I is set forth in Table 4 above.

IDH1 R132H = IDH1 R132H (Homo sapiens, UniProt O75874, R132H); experiment: Assay for IDH1 R132H inhibitors (NADPH/aKG, resazurin detection); format: biochemical; details: enzyme assay of Example 12; read-out: IDH1R132H IC50
Sequence of IDH1 R132H (O75874 whole entry R132H): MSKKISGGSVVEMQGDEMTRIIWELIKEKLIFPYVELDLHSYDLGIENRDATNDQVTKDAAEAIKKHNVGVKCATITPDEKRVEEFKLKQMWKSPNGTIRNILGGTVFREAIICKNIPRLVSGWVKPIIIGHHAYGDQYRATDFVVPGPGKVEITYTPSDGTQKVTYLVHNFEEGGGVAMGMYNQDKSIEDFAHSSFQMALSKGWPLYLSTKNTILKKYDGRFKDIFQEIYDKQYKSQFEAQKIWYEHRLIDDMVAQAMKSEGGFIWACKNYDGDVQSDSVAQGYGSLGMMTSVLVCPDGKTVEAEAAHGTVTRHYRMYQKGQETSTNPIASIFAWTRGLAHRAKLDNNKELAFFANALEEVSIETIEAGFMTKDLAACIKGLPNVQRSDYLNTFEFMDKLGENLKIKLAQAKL
How it was run: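 Compound added to substrate mix (8 uM NADPH, 2 mM aKG), then enzyme mix (0.2 μg/ml IDH1 R132H); 50 min RT in 20 mM Tris pH 7.5, 150 mM NaCl, 10 mM MgCl2, 0.03% BSA. Resazurin detection mix (30 μM) 5 min RT; resorufin fluorescence Ex544/Em590.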

HT1080 cells = experiment: Cellular assay for IDH1m inhibitors: inhibition of 2-HG production (LC-MS, 48 hours) in HT1080 cells; format: cell-based; details: Homo sapiens, HT-1080; inhibition of 2-HG production, HT1080 cells; read-out: HT1080 IC50
Procedure: as §1, §2

IC50 (U87MG cells)	IC50 (IDH1 R132H)	IC50 (HT1080 cells)	Compound
1000 to 10000 nM	< 500 nM	–	N#Cc1cc(Cc2ccnc(Cl)c2)c(C2CC2)nc1N1CCN(C(=O)CCO)[C@H](C2CC2)C1 [Compound 708, (R)-5-((2-chloropyridin-4-yl)methyl)-6-cyclopropyl-2-(3-cyclopropyl-4-(3-hydroxypropanoyl)piperazin-1-yl)nicotinonitrile]
< 500 nM	–	–	C=Cc1cc(-c2cc(C#N)c(N3CCN(C(=O)CCO)[C@H](C4CC4)C3)nc2C2CC2)c2cccnc2n1 [Compound 691]
–	< 500 nM	< 500 nM	C=Cc1cc(-c2cc(C#N)c(N3CCN(C(=O)CCOC)[C@H](C4CC4)C3)nc2C2CC2)c2ccccc2n1 [Compound 574, (R)-6-cyclopropyl-2-(3-cyclopropyl-4-(3-methoxypropanoyl)piperazin-1-yl)-5-(2-vinylquinolin-4-yl)nicotinonitrile]
–	< 500 nM	< 500 nM	C=Cc1cc(-c2c(C3CC3)nc(N3CCN(C(=O)C[C@H]4CCO4)[C@H](C4CC4)C3)c(C#N)c2CC)ccn1 [Compound 823, 2-cyclopropyl-6-((R)-3-cyclopropyl-4-(2-((R)-oxetan-2-yl)acetyl)piperazin-1-yl)-4-ethyl-2′-vinyl-[3,4′-bipyridine]-5-carbonitrile]
–	< 500 nM	< 500 nM	C#CC(=O)N1CCC=C(c2cc(C#N)c(N3CCN(C(=O)C4CC4)[C@H](C)C3)nc2C2CC2)C1 [Compound 594, (R)-2-(4-(cyclopropanecarbonyl)-3-methylpiperazin-1-yl)-6-cyclopropyl-5-(1-propioloyl-1,2,5,6-tetrahydropyridin-3-yl)nicotinonitrile]
–	< 500 nM	500 to 1000 nM	CC(=O)N1CCN(c2nc(C3CC3)c(-c3cccc4cnccc34)cc2C#N)C[C@H]1C [Compound 516, (R)-2-(4-acetyl-3-methylpiperazin-1-yl)-6-cyclopropyl-5-(isoquinolin-5-yl)nicotinonitrile]
–	< 500 nM	500 to 1000 nM	N#Cc1cc(-c2ccc3ncsc3c2)c(C2CC2)nc1N1CCN(C(=O)CC(F)(F)F)[C@H](C2CC2)C1 [Compound 537, (R)-5-(benzo[d]thiazol-6-yl)-6-cyclopropyl-2-(3-cyclopropyl-4-(3,3,3-trifluoropropanoyl)piperazin-1-yl)nicotinonitrile]
–	< 500 nM	< 500 nM	C=Cc1cc(-c2cc(C#N)c(N3CCN(C(=O)CCO)[C@H](C4CC4)C3)nc2C2CC2)c2ccccc2n1 [Compound 571, (R)-6-cyclopropyl-2-(3-cyclopropyl-4-(3-hydroxypropanoyl)piperazin-1-yl)-5-(2-vinylquinolin-4-yl)nicotinonitrile]
–	< 500 nM	< 500 nM	C=C(F)c1cc(-c2cc(C#N)c(N3CCN(C(=O)CCOC)[C@H](C)C3)nc2C2CC2)ncn1 [Compound 602, (R)-6-cyclopropyl-5-(6-(1-fluorovinyl)pyrimidin-4-yl)-2-(4-(3-methoxypropanoyl)-3-methylpiperazin-1-yl)nicotinonitrile]
–	< 500 nM	1000 to 10000 nM	C=CC(=O)N(c1cc(C#N)c(N2CCN(C(=O)CCOC)[C@H](C)C2)nc1C1CC1)c1ccnc2ccccc12 [Compound 712, (R)—N-(5-cyano-2-cyclopropyl-6-(4-(3-methoxypropanoyl)-3-methylpiperazin-1-yl)pyridin-3-yl)-N-(quinolin-4-yl)acryl amide]
–	< 500 nM	< 500 nM	Cc1cc(-c2cc(C#N)c(N3CCN(C(=O)C4CC4)[C@H](C4CC4)C3)nc2C2CC2)c2ccncc2n1 [Compound 553, (R)-2-(4-(cyclopropanecarbonyl)-3-cyclopropylpiperazin-1-yl)-6-cyclopropyl-5-(2-methyl-1,7-naphthyridin-4-yl)nicotinonitrile]
–	< 500 nM	< 500 nM	C=Cc1cc(N(C(C)=O)c2cc(C#N)c(N3CCN(C(=O)CCOC)[C@H](C)C3)nc2C2CC2)ccn1 [Compound 662, (R)—N-(5-cyano-2-cyclopropyl-6-(4-(3-methoxypropanoyl)-3-methylpiperazin-1-yl)pyridin-3-yl)-N-(2-vinylpyridin-4-yl)acetamide]
–	< 500 nM	< 500 nM	C=Cc1cc(Nc2c(C3CC3)nc(N3CCN(C(=O)CCOC)[C@H](C(C)C)C3)c(C#N)c2C)ccn1 [Compound 807, (R)-6-cyclopropyl-2-(3-isopropyl-4-(3-methoxypropanoyl)piperazin-1-yl)-4-methyl-5-((2-vinylpyridin-4-yl)amino)nicotinonitrile]
–	< 500 nM	< 500 nM	C=Cc1cnc2c(/C=C/c3cnc4c(-c5cc(C#N)c(N6CCN(C(=O)CCOC)[C@H](C)C6)nc5C5CC5)cccc4n3)cccc2n1 [Compound 604, (R,E)-6-cyclopropyl-2-(4-(3-methoxypropanoyl)-3-methylpiperazin-1-yl)-5-(2-(2-(2-vinylquinoxalin-5-yl)vinyl)quinoxalin-5-yl)nicotinonitrile]
–	< 500 nM	< 500 nM	C=Cc1ccc(Nc2cc(C#N)c(N3CCN(C(=O)CCO)[C@H](C)C3)nc2C2CC2)cn1 [Compound 577, (R)-6-cyclopropyl-2-(4-(3-hydroxypropanoyl)-3-methylpiperazin-1-yl)-5-((6-vinylpyridin-3-yl)amino)nicotinonitrile]
–	< 500 nM	< 500 nM	C=Cc1cc(-c2cc(C#N)c(N3CCN(C(=O)CCO)C(C)C3)nc2C2CC2)ccn1 (stereo not drawn) [Compound 572]
–	< 500 nM	< 500 nM	C=Cc1cc(-c2cc(C#N)c(N3CCN(C(=O)C4(O)CC4)[C@H](C)C3)nc2C2CC2)ccn1 [Compound 664, (R)-2-cyclopropyl-6-(4-(1-hydroxycyclopropanecarbonyl)-3-methylpiperazin-1-yl)-2′-vinyl-3,4′-bipyridine-5-carbonitrile]
–	< 500 nM	1000 to 10000 nM	N#Cc1cc(Nc2ccnc3ccccc23)c(C2CC2)nc1N1CCN(C(=O)CC(F)(F)F)[C@H](C2CC2)C1 [Compound 560, (R)-6-cyclopropyl-2-(3-cyclopropyl-4-(3,3,3-trifluoropropanoyl)piperazin-1-yl)-5-(quinolin-4-ylamino)nicotinonitrile]
–	< 500 nM	< 500 nM	C=Cc1cc(Cc2cc(C#N)c(N3CCN(C(=O)C4CC4)[C@H](C4CC4)C3)nc2C2CC2)ccn1 [Compound 684, (R)-2-(4-(cyclopropanecarbonyl)-3-cyclopropylpiperazin-1-yl)-6-cyclopropyl-5-((2-vinylpyridin-4-yl)methyl)nicotinonitrile]
–	< 500 nM	500 to 1000 nM	Cc1cc(-c2cc(C#N)c(N3CCN(C(=O)C4CC4)[C@H](C4CC4)C3)nc2C2CC2)c2cccnc2n1 [Compound 557, (R)-2-(4-(cyclopropanecarbonyl)-3-cyclopropylpiperazin-1-yl)-6-cyclopropyl-5-(2-methyl-1,8-naphthyridin-4-yl)nicotinonitrile]
–	< 500 nM	< 500 nM	C=Cc1cc(-c2cc(C#N)c(N3CCN(C(=O)CCC(OC)OC)[C@H](C)C3)nc2C2CC2)ccn1 [Compound 606, (R)-2-cyclopropyl-6-(4-(4,4-dimethoxybutanoyl)-3-methylpiperazin-1-yl)-2′-vinyl-[3,4′-bipyridine]-5-carbonitrile]
–	< 500 nM	< 500 nM	Cc1cc2c(-c3cc(C#N)c(N4CCN(C(=O)CCO)[C@H](C)C4)nc3C3CC3)cccc2cn1 [Compound 588, (R)-6-cyclopropyl-2-(4-(3-hydroxypropanoyl)-3-methylpiperazin-1-yl)-5-(3-methylisoquinolin-5-yl)nicotinonitrile]
–	500 to 1000 nM	1000 to 10000 nM	C[C@@H]1CN(c2nc(C3CC3)c(-c3ccnc(C#N)c3)cc2C#N)CCN1C(=O)C1CC1 [Compound 522, (R)-6-(4-(cyclopropanecarbonyl)-3-methylpiperazin-1-yl)-2-cyclopropyl-3,4′-bipyridine-2′,5-dicarbonitrile]
–	500 to 1000 nM	1000 to 10000 nM	C=Cc1cc(-c2cc(C#N)c(N3CCN(C(=O)CCOC)[C@H](C)C3)nc2C2CC2)cc(C#N)n1 [Compound 672, (R)-2-cyclopropyl-6-(4-(3-methoxypropanoyl)-3-methylpiperazin-1-yl)-6′-vinyl-[3,4′-bipyridine]-2′,5-dicarbonitrile]
–	< 500 nM	500 to 1000 nM	CCO[C@@H]1C[C@@H]1C(=O)N1CCN(c2nc(C3CC3)c(-c3cccc4cnccc34)cc2C#N)C[C@H]1C [Compound 517, 6-cyclopropyl-2-((R)-4-((1S,2R)-2-ethoxycyclopropanecarbonyl)-3-methylpiperazin-1-yl)-5-(isoquinolin-5-yl)nicotinonitrile]
–	< 500 nM	< 500 nM	C=Cc1cc(-c2cc(C#N)c(N3CCN(C(=O)CN4CCC4=O)[C@H](C4CC4)C3)nc2C2CC2)ccn1 [Compound 818]
